Reference: patent publication US12673955B2, “Crystal form of p-toluenesulfonate salt of diazabicyclic compound and preparation method therefor” (CRYSTAL PHARMATECH CO., LTD., priority 2020, dated 2026)

Key:
Format in all cases: physicochemical
[1] = Stability study of tosylate Form A (XRPD and chemical impurity after storage)
Description: Approximately 10 mg of tosylate Form A were stored under different conditions of 25° C./60% RH and 40° C./75% RH. XRPD and chemical impurity were checked at 1 week, 2 weeks, 4 weeks and 8 weeks.
Based on the above results, tosylate Form A kept stable for at least 8 weeks.

[2] = Hygroscopicity study by dynamic vapor sorption (DVS)
Description: The dynamic vapor sorption diagrams of the present disclosure were collected on Intrinsic-type and Intrinsic Plus-type dynamic vapor sorption instruments of SMS company. The parameters of the dynamic vapor sorption test of the present disclosure were as follows: • Temperature: 25° C. • Protection gas and flow rate: N2, 200 m L/min • dm/dt: 0.002%/min • Minimum dm/dt equilibration time: 10 min • Maximum Equilibration Time: 180 min • Relative humidity range: 0% RH-95% RH-0% RH • Relative humidity gradient: 10% (0% RH-90% RH-0% RH), 5% (90% RH-95% RH and 95% RH-90% RH).
Dynamic vapor sorption (DVS) was applied to test hygroscopicity of tosylate Form A solid and solid in the prior art with about 10 mg of samples. XRPD patterns were collected.
Non-hygroscopic or almost non hygroscopic: increase in mass is less than 0.2 percent.

[3] = Solubility of crystalline form (saturated solutions measured by HPLC); conditions: for solubility at 1 h / solubility at 2 h / solubility at 4 h / solubility at 24 h: thermodynamic from solid
Description: Tosylate Form A and solid in the prior art were suspended into SGF, FaSSIF, FeSSIF and water to get saturated solutions. After equilibrated for 1 hour, 2 hours, 4 hours and 24 hours, concentrations of the saturated solutions were measured by HPLC.

[4] = Compressibility of crystalline form (manual tablet press, 350 MPa)
Description: A manual tablet press was used for tabletting. Appropriate amount of tosylate Form A and solid in the prior art were compressed by circle punches under 350 MPa pressure to form a tablet. Hardness (H) of the tablet was determined to be 18.36 N by a tablet hardness tester. Diameter (D) and thickness (L) of the tablet were determined to be 6 mm and 1.02 mm by a vernier caliper, respectively. The tensile strength of the tablets was calculated to be 1.9 MPa through the equation of T=2H/πDL.

[5] = Intrinsic dissolution of crystalline form; conditions: pH 6.8 phosphate buffer, 900 mL, 37° C., paddle, tablet surface 0.5 cm^2
Description: The intrinsic dissolution rate data of the present disclosure were collected on an Agilent 708DS-type dissolution apparatus of the Agilent company. The intrinsic dissolution test conditions were as follows.
Approximately 100 mg of tosylate Form A and the solid in the prior art were added into the cavity of the die, and then compressed at 5 KN and held for 1 minute to obtain a tablet having a surface area of 0.5 cm^2.

[6] = Crystal habit by polarized light microscopy
Excerpt: The polarized light microscope photos of the present disclosure were taken at room temperature with a Zeiss microscope Axio Scope.A1 equipped with an Axiocam 305 color camera and 5×, 10×, 20× and 50× objective lenses.

[7] = PSD test (laser particle size analyzer, wet method)
Description: The particle size distribution results of the present disclosure were collected on S3500-type laser particle size analyzer of the Microtrac company. The Microtrac S3500 was equipped with an SDC (Sample Delivery Controller) sampling system. The wet method was used in this test, using Isopar G (containing 0.2% lecithin) as the test dispersion medium. The process parameters of the laser particle size analyzer were as follows.
Approximately 10-30 mg of tosylate Form A solid was added into 10 mL of Isopar G (containing 0.2% lecithin). The mixture was mixed thoroughly and transferred into the SDC. The experiment was started when the obscuration is in appropriate range. The particle size distribution (PSD) was tested before and after 30 seconds of ultrasound.

[8] = Adhesiveness propensity study (material sticking to the punch); conditions: 8 mm round tooling, 10 kN, 30 s
Description: Approximately 30 mg of tosylate Form A and the solid in the prior art were weighed and then added into the dies of 8 mm round tooling, compressed at 10 kN pressure and held for 30 s. The punch was weighed and amount of material sticking to the punch was calculated. The compression was repeated once and the cumulative amount, maximum amount and average amount of material sticking to the punch during the compression were recorded.

[9] = 25° C./60% RH and 40° C./75% RH, up to 8 weeks
[10] = Isopar G containing 0.2% lecithin

time kept stable ([1]; 25° C./60% RH and 40° C./75% RH): at least 8 weeks
Crystalline state after storage [1, 9]: doesn't change
chemical purity after storage [1, 9]: above 99%
Puriy ([1]; 25° C./60% RH, 1 week): 99.92%
Puriy ([1]; 25° C./60% RH, 2 weeks): 100.0%
Puriy ([1]; 25° C./60% RH, 4 weeks): 99.89%
Puriy ([1]; 25° C./60% RH, 8 weeks): 99.92%
Puriy ([1]; 40° C./75% RH, 1 week): 99.90%
Puriy ([1]; 40° C./75% RH, 2 weeks): 99.91%
Puriy ([1]; 40° C./75% RH, 4 weeks): 99.90%
Puriy ([1]; 40° C./75% RH, 8 weeks): 99.91%
form change after DVS test (XRPD) ([2]; 0% RH-95% RH-0% RH, 25° C.): no obvious form change
hygroscopicity class ([2]; Chinese Pharmacopoeia 2015 definition, from DVS weight gain at 80% RH): slightly hygroscopic
weight gain (DVS) ([2]; at 80% RH, 25° C.): 0.35%
hygroscopicity compared with the prior art ([2]; versus solid in the prior art): relatively lower hygroscopicity
solubility at 1 h ([3]; simulated gastric fluid, SGF): 5540 µg/mL
solubility at 2 h ([3]; simulated gastric fluid, SGF): 5990 µg/mL
solubility at 4 h ([3]; simulated gastric fluid, SGF): 5080 µg/mL
solubility at 24 h ([3]; simulated gastric fluid, SGF): 5690 µg/mL
solubility at 1 h ([3]; FaSSIF): 7120 µg/mL
solubility at 2 h ([3]; FaSSIF): 7310 µg/mL
solubility at 4 h ([3]; FaSSIF): 7300 µg/mL
solubility at 24 h ([3]; FaSSIF): 7540 µg/mL
solubility at 1 h ([3]; FeSSIF): 6770 µg/mL
solubility at 2 h ([3]; FeSSIF): 7030 µg/mL
solubility at 4 h ([3]; FeSSIF): 7340 µg/mL
solubility at 24 h ([3]; FeSSIF): 7780 µg/mL
solubility at 1 h ([3]; water, H2O): 5260 µg/mL
solubility at 2 h ([3]; water, H2O): 5340 µg/mL
solubility at 4 h ([3]; water, H2O): 5240 µg/mL
solubility at 24 h ([3]; water, H2O): 5560 µg/mL
compressibility ([4]; 350 MPa pressure): good compressibility
tensile strength of the tablets ([4]; calculated by T=2H/πDL, tablet compressed under 350 MPa): 1.9 MPa
Hardness (H) of the tablet ([4]; tablet compressed under 350 MPa, diameter 6 mm, thickness 1.02 mm): 18.36 N
flowability ([6]; inferred from crystal habit): good flowability
crystal habit ([6]; polarized light microscopy): rod-like particles
change of particle size distribution after sonication ([7]; 30 seconds of ultrasound): no obvious change or agglomeration
mean particle size (MV) [7, 10]: 400 μm
particle size distribution shape [7, 10]: unimodal distribution
adhesiveness compared with the prior art solid [8]: superior to the prior art solid
SMILES: Cn1cc(Nc2nccc(N3C[C@H]4CC[C@@H](C3)N4C(=O)[C@@H]3CC3(F)F)n2)cn1 [tosylate Form A, ((1S)-2,2-difluorocyclo-propyl) ((1R,5S)-3-(2-((1-methyl-1H-pyrazol-4-yl)amino)pyrimidin-4-yl)-3,8-diazabicyclo[3.2.1]octan-8-yl)methanone]
solubility compared with solid in the prior art ([3]; SGF, FaSSIF, FeSSIF and water): higher than that of solid in the prior art
intrinsic dissolution rate compared with the solid in the prior art [5]: higher dissolution rate than the solid in the prior art
